The source of these data is ChEMBL document CHEMBL1201862, “PubChem BioAssay data set” (2004).

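Dose response: 5 concentrations. Exposure: 48 h. Format: 96-well plates. Endpoint: linear interpolation; highest concentration if not reached. GI50: concentration for 50% inhibition of growth.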 Calls of active or inactive are those of the source. Cut-off read from the data, not from the text of the source: active = GI50 up to about 1.1 µM and inactive = higher. Residues, ends and D or L forms follow the SMILES beside them. *: point of attachment. Boc = CC(C)(C)OC(=O)*

Holding throughout (assay): NCI anticancer screen, dose series, 48 h
Experiment [1] deals with NCI-H522.
In experiment [2] the test system is MDA-MB-435.
Experiment [3] concerns MCF7.
Experiment [4] has as its system SK-MEL-28.
The test system of experiment [5] is CCRF-CEM.
In experiment [6] the test system is NCI-H23.
For experiment [7], the system named is TK-10.
The subject of experiment [8] is OVCAR-5.
Experiment [9] has as its system KM12.
Experiment [10] relates to SK-MEL-2.
In experiment [11] the test system is ACHN.
Experiment [12] has as its system SR.
The subject of experiment [13] is LOX IMVI.
For experiment [14], the system named is A498.
Experiment [15] has as its system HCC 2998.
Experiment [16] relates to U-251.
The test system of experiment [17] is OVCAR-4.
The test system of experiment [18] is Malme-3M.
The subject of experiment [19] is MOLT-4.
For experiment [20], the system named is HOP-92.

With `N=C/N=C/C(=S)O[C@@H]1C(=O)N2CCC[C@@]23CCCC[C@@H]13`, the GI50 in experiment [1], in [2], in experiment [3], in [4], in [5] and in experiment [6] was > 12.5 µM (inactive) in each case. The GI50 in experiment [7], in experiment [8], in experiment [9], in experiment [10], in experiment [11] and in experiment [12] was > 12.5 µM (inactive) throughout. The GI50 in experiment [13], in experiment [14], in [15], in experiment [16], in experiment [17] and in [18] was > 12.5 µM (inactive) in each case.
Turning to `NS(=O)(=O)c1ccc2c(c1)OCCOCCOCCOCCO2`, the GI50 in [1], in experiment [19], in experiment [2], in experiment [3], in experiment [4] and in experiment [5] was > 100 µM (inactive) throughout. Further, the GI50 in experiment [6], in experiment [7], in experiment [9], in experiment [11], in experiment [12] and in experiment [13] was > 100 µM (inactive) in each case. Further, the GI50 in experiment [14], in experiment [15] and in experiment [18] was > 100 µM (inactive) throughout.
Take `CC(C)(C)OC(=O)NC(Cc1ccc(O)cc1)C(=O)NC(CCCCN)C(=O)O` (stereo not drawn) (Boc-Tyr-Lys-OH; configuration not given here): the GI50 is 6.41 µM (inactive) in experiment [1]; 32.8 µM (inactive) in experiment [19]; 20.7 µM (inactive) in [2]; 30.4 µM (inactive) in experiment [3]; 23.8 µM (inactive) in experiment [4]; 33.4 µM (inactive) in experiment [5]. Besides, the GI50 is 18.5 µM (inactive) in experiment [6]; 37.9 µM (inactive) in experiment [7]; 25 µM (inactive) in experiment [8]; 20.2 µM (inactive) in experiment [10]; 23.7 µM (inactive) in experiment [11]; 28.6 µM (inactive) in [12]. Further, the GI50 is 15 µM (inactive) in [13]; 24.8 µM (inactive) in experiment [14]; 28.9 µM (inactive) in experiment [15]; 20.9 µM (inactive) in experiment [16]; 17.5 µM (inactive) in experiment [17]; 28.1 µM (inactive) in experiment [18].
For `C[C@@H](c1ccccc1)N1CN(C(=O)OCc2ccccc2)C(CO)C1=O` (stereo partly drawn), the GI50 was > 100 µM (inactive) in experiment [1]; > 100 µM (inactive) in [19]; > 100 µM (inactive) in experiment [2]; 47.2 µM (inactive) in experiment [3]; > 100 µM (inactive) in experiment [4]; 67 µM (inactive) in experiment [5]. The GI50 in [6], in experiment [7], in experiment [8], in [9], in experiment [10] and in [11] was > 100 µM (inactive) in each case. Moreover, the GI50 in experiment [12], in experiment [13], in experiment [15], in experiment [16], in experiment [17] and in experiment [18] was > 100 µM (inactive) throughout.
As to `Nc1c(C(=O)O)nnc2cc(Cl)c(Cl)cc12`, the GI50 in experiment [1], in [19], in experiment [2], in experiment [3], in [5] and in experiment [6] was > 100 µM (inactive) throughout. In addition, the GI50 in experiment [7], in [8], in [9], in experiment [10], in [11] and in experiment [12] was > 100 µM (inactive) in each case. In addition, the GI50 in experiment [13] is 82 µM (inactive); in [14], 91 µM (inactive); in experiment [15], > 100 µM (inactive); in [16] it was > 100 µM (inactive); in [17] it was > 100 µM (inactive); in [18], > 100 µM (inactive).
For the compound `CN(C)CCCNC(=O)CNC(=O)c1cc(NC(=O)c2cc(NC(=O)c3cc(NC(=O)CCNC(=O)c4cc(NC(=O)c5cc(NC(=O)c6nccn6C)cn5C)cn4C)cn3C)cn2C)cn1C`, the GI50 in experiment [1] is > 100 µM (inactive); in experiment [19] it was 20.8 µM (inactive); in experiment [2], > 100 µM (inactive); in experiment [3], > 100 µM (inactive); in experiment [4], > 100 µM (inactive); in experiment [5], 24.5 µM (inactive). Also, the GI50 in experiment [6] is > 100 µM (inactive); in [7] it was > 100 µM (inactive); in experiment [8], > 100 µM (inactive); in experiment [9], 64.6 µM (inactive); in [10], > 100 µM (inactive); in experiment [20] it was > 100 µM (inactive). For the same compound, the GI50 in experiment [11], in experiment [13], in experiment [14], in experiment [15], in experiment [16] and in experiment [17] was > 100 µM (inactive) in each case. Also, the GI50 in experiment [18] was > 100 µM (inactive).
Turning to `CCCC[C@H]1CCN2C[C@@H](O)[C@@H](O)[C@H]2[C@@H]1O`, the GI50 in experiment [1], in experiment [19], in [2], in experiment [3], in experiment [4] and in experiment [5] was > 100 µM (inactive) throughout. Further, the GI50 in [6], in [7], in experiment [8], in experiment [9], in experiment [10] and in [20] was > 100 µM (inactive) each time. Moreover, the GI50 in [11], in experiment [13], in experiment [14], in experiment [15], in [16] and in experiment [17] was > 100 µM (inactive) in each case. For the same compound, the GI50 in experiment [18] was > 100 µM (inactive).
`COC(=O)c1ccc(COC(=O)N2C=CCC2C(=O)O)cc1` (stereo not drawn): the GI50 in [1], in experiment [19], in [2], in [3], in experiment [4] and in experiment [6] was > 100 µM (inactive) throughout. Besides, the GI50 is > 100 µM (inactive) in [7]; > 100 µM (inactive) in experiment [8]; > 100 µM (inactive) in experiment [9]; > 100 µM (inactive) in experiment [10]; 63 µM (inactive) in experiment [20]; > 100 µM (inactive) in experiment [11]. Also, the GI50 in experiment [12], in experiment [15], in [16] and in experiment [18] was > 100 µM (inactive) in each case.
Regarding `CC(C)=CCC/C(C)=C\CC/C(C)=C/CO`, the GI50 in experiment [1] was 14.2 µM (inactive); in [19] it was 20.5 µM (inactive); in experiment [2] it was 19.6 µM (inactive); in experiment [3] it was 19.3 µM (inactive); in experiment [4] it was 44.9 µM (inactive); in [5] it was 19.5 µM (inactive). In addition, the GI50 in experiment [6] is 23.8 µM (inactive); in experiment [7], 25.7 µM (inactive); in experiment [8] it was > 100 µM (inactive); in experiment [9], 38.2 µM (inactive); in experiment [10] it was 16.4 µM (inactive); in [20], 10.5 µM (inactive). Further, the GI50 in [11] is 22.4 µM (inactive); in experiment [12], 21.4 µM (inactive); in [13] it was > 10 µM (inactive); in experiment [15], 22.6 µM (inactive); in experiment [16], 17.6 µM (inactive); in experiment [17], 26.2 µM (inactive). The GI50 in [18] was 18.2 µM (inactive).
On to `COc1ccc(C(C#N)NC23CC4CC(CC(C4)C2)C3)cc1` (stereo not drawn), for which the GI50 in [1], in [19], in experiment [2], in experiment [3], in experiment [4] and in [5] was > 100 µM (inactive) throughout. In addition, the GI50 is > 100 µM (inactive) in experiment [6]; > 100 µM (inactive) in experiment [7]; > 100 µM (inactive) in experiment [8]; > 100 µM (inactive) in [9]; > 100 µM (inactive) in experiment [10]; 67.9 µM (inactive) in experiment [20]. The GI50 in [11], in experiment [12], in experiment [13], in experiment [15], in experiment [16] and in [17] was > 100 µM (inactive) in each case. Besides, in experiment [18], the GI50 is > 100 µM (inactive).
For the compound `CSC1=NN=C(SC)NN1`, the GI50 in experiment [1] was 0.214 µM (active); in experiment [19], 0.027 µM (active); in experiment [2] it was 0.182 µM (active); in [3] it was 0.201 µM (active); in experiment [4], 0.186 µM (active); in experiment [5], 0.0243 µM (active). The GI50 is 0.285 µM (active) in experiment [6]; 0.213 µM (active) in experiment [7]; 0.179 µM (active) in experiment [8]; 0.192 µM (active) in [9]; 0.145 µM (active) in experiment [10]; 0.173 µM (active) in experiment [20]. The GI50 in experiment [11] was 0.168 µM (active); in experiment [12] it was 0.0204 µM (active); in experiment [13] it was 0.15 µM (active); in experiment [15], 0.378 µM (active); in [16], 0.18 µM (active); in [17], 0.172 µM (active). Besides, in [18], the GI50 is 0.151 µM (active).
